Assay [1] deals with T1, Acetylcholinesterase (Rattus norvegicus, UniProt P37136).
T1 sequence (P37136 whole entry): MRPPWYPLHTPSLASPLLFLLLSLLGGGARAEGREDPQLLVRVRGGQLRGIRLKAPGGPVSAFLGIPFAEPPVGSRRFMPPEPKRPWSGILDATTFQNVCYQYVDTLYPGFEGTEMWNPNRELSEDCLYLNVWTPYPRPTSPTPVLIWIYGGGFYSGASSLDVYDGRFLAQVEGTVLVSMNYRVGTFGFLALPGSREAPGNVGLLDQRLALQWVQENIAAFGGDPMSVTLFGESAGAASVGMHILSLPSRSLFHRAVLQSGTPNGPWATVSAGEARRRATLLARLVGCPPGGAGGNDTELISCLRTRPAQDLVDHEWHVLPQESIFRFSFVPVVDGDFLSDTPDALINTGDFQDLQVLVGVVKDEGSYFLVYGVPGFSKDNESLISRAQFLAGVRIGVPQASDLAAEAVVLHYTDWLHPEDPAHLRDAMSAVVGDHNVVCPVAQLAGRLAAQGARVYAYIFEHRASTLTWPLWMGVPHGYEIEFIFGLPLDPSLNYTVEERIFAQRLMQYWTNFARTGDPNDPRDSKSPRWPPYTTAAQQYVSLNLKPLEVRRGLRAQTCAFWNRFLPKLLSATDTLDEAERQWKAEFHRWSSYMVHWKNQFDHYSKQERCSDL
Description: In vitro inhibition of acetylcholinesterase in homogenized rat striatum.

The target in assay [2] is Acetylcholinesterase (Torpedo californica, UniProt P04058).
Description: In vitro inhibition of Torpedo californica acetylcholinesterase.
For assay [3], the target named is Acetylcholinesterase (Homo sapiens, UniProt P22303). Put plainly: Inhibitory concentration against acetylcholinesterase (AChE) from human erythrocytes.
In a further assay the target is Cholinesterase (Homo sapiens, UniProt P06276). Put plainly: Inhibitory concentration against Butyrylcholinesterase (BuChE) from human serum.
Assay [4] is described as follows: Ratio of inhibitory activity of ocmpound towards acetylcholinesterase from human erythrocytes over butyrylcholinesterase from human serum.

Sequence of Acetylcholinesterase (Torpedo californica, UniProt P04058) (P04058 whole entry): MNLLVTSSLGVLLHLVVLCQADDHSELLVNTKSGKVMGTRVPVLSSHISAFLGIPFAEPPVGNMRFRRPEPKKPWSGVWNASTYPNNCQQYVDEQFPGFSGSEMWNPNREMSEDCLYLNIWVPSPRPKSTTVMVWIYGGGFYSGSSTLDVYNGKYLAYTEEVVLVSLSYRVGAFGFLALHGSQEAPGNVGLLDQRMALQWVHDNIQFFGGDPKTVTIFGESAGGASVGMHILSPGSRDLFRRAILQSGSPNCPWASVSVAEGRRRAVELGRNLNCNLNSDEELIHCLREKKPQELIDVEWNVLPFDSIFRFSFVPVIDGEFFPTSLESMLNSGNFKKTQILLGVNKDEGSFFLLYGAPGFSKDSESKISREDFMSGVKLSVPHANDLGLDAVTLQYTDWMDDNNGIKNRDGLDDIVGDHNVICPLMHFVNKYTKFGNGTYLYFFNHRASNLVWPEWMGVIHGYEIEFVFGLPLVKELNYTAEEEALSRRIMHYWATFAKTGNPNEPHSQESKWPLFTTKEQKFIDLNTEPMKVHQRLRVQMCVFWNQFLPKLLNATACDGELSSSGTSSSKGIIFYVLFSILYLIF
Sequence of Cholinesterase (P06276 whole entry): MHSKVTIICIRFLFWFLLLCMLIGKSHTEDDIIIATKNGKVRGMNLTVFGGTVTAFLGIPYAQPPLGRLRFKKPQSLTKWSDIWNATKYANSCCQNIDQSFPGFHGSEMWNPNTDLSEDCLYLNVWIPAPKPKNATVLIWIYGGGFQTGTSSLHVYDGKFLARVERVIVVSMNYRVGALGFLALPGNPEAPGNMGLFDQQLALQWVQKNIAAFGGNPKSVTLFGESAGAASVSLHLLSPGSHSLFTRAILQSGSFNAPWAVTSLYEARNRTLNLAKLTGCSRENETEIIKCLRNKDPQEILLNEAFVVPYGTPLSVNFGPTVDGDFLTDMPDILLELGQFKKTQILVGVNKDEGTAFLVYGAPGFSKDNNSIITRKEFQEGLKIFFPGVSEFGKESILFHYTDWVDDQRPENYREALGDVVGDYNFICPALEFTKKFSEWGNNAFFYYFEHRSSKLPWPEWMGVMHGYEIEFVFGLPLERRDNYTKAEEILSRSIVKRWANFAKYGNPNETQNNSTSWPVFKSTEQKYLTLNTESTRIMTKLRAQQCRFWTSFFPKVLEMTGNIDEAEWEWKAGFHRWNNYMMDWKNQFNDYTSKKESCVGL
Sequence of Acetylcholinesterase (Homo sapiens, UniProt P22303) (P22303 whole entry): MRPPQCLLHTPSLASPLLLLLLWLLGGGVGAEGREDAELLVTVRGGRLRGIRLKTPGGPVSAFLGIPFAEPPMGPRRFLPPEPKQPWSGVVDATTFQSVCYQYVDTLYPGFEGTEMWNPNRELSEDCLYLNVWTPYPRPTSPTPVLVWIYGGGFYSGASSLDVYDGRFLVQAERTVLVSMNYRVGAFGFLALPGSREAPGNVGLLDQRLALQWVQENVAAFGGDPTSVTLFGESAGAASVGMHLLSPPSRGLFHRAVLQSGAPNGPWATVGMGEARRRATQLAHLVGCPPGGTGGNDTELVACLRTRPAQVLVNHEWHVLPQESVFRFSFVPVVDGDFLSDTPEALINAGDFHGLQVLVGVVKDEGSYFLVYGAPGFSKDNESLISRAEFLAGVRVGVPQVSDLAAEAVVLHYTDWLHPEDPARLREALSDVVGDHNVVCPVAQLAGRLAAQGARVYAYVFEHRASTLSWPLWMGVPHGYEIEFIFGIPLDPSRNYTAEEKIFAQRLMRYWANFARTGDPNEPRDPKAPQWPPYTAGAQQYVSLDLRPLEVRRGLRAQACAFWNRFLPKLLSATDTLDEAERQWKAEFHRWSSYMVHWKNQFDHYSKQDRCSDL

Broadly, the IC50 is the concentration that gives 50% inhibition. A lower IC50 goes with greater potency in that assay. For `N#Cc1cc(-c2ccccc2)nnc1NCCN1CCOCC1`, the IC50 against Acetylcholinesterase [1] was above 100 µM.
With `c1ccc(-c2ccc(NCCCN3CCOCC3)nn2)cc1`, the 50% inhibitory concentration (IC50) against Acetylcholinesterase [2] was found to be 410 µM.
At Acetylcholinesterase [1], `c1ccc(-c2ccc(NCCN3CCCCC3)nc2)cc1` had a 50% inhibitory concentration (IC50) of 70 µM.
Consider `c1ccc(CN2CCC(Nc3ccc(-c4ccccc4)nn3)CC2)cc1`, for which the half-inhibitory concentration (IC50) on Acetylcholinesterase [2] came out at 65 µM.
In turn, `CN(CCNc1ccc(-c2ccccc2)nn1)Cc1ccccc1` came in with an IC50 against Acetylcholinesterase [2] of 170 µM. This IC50 is about 2.6-fold higher than that of the compound before.
`CCN1CCCC1CNc1ccc(-c2ccccc2)nn1` (configuration not stated) gave an IC50 against Acetylcholinesterase [2] of 62 µM.
The same measure, in the same setting: the figure for `c1ccc(-c2ccc(NCCCCN3CCc4ccccc4C3)nn2)cc1` is 15 µM.
In the case of `CN(CCCCCNc1ccc(-c2ccccc2)nn1)Cc1ccccc1`, the figures for the half-inhibitory concentration (IC50) on Acetylcholinesterase [3], against Cholinesterase and on Acetylcholinesterase [2] were 0.93 µM, 0.34 µM and 0.74 µM, respectively. In assay [4], the Ratio is 0.36.
The compound `CN(CCCNc1ccc(-c2ccccc2)nn1)Cc1ccccc1` returned an IC50 against Acetylcholinesterase [2] of 13 µM.
In the case of `Cc1cc(-c2ccc(Cl)cc2)nnc1NCCN1CCCCC1`, the concentration for half-maximal inhibition (IC50) on Acetylcholinesterase [1] is 1.3 µM. This lies in the single-digit micromolar range.
With `c1ccc(-c2ccc(NCCN3CCOCC3)nn2)cc1`, the figures for the half-maximal inhibitory concentration (IC50) against Acetylcholinesterase [1] and on Acetylcholinesterase [2] were above 1000 µM and 800 µM, respectively.
As to `Cc1cc(-c2ccc(Cl)cc2)nnc1NCCN1CCOCC1`, 34 µM corresponded to half-maximal inhibition at Acetylcholinesterase [1] (IC50).
For `c1ccc(-c2ccc(NCCCN3CCc4ccccc4C3)nn2)cc1`, the half-maximal inhibitory concentration (IC50) on Acetylcholinesterase [2] stood at 35 µM.
As for `c1ccc(-c2cnc(NCCN3CCCCC3)nn2)cc1`, the midpoint of inhibition against Acetylcholinesterase [1], the IC50, lay at 60 µM.
On to `CN(CCCCNc1ccc(-c2ccccc2)nn1)Cc1ccccc1`, for which it took 11 µM to reach half-maximal inhibition on Acetylcholinesterase [2] (IC50).
As for `c1ccc(-c2ccc(NCCCCCN3CCc4ccccc4C3)nn2)cc1`, the results for the half-inhibitory concentration (IC50) on Acetylcholinesterase [3], at Cholinesterase and against Acetylcholinesterase [2] were 47 µM, 0.31 µM and 10 µM, respectively. Further, the Ratio in assay [4] was determined as 0.0066.
For the compound `Cc1cc(-c2ccccc2)nnc1NCCN1CCOCC1`, at Acetylcholinesterase [1], half-maximal inhibition (IC50) was put at 85 µM. That is a double-digit micromolar value.
`c1ccc(-c2nnc(NCCN3CCCCC3)s2)cc1`: on Acetylcholinesterase [1], it took 54 µM to reach half-maximal inhibition (IC50).
As for `c1ccc(C2=NNC(NCCN3CCCCC3)=NC2)cc1`, the half-maximal inhibitory concentration (IC50) on Acetylcholinesterase [1] is 47 µM.
Turning to `c1ccc(CN2CCC(CCNc3ccc(-c4ccccc4)nn3)CC2)cc1`, the values for the half-inhibitory concentration (IC50) against Acetylcholinesterase [3], against Cholinesterase and on Acetylcholinesterase [2] were 0.14 µM, 0.7 µM and 0.12 µM, respectively. For the same compound, the Ratio in assay [4] came to 5.
The compound `c1ccc(-c2ncc(NCCN3CCCCC3)nn2)cc1` yielded an IC50 against Acetylcholinesterase [1] of 57 µM. That is a double-digit micromolar value.
`FC(F)(F)c1cc(-c2ccccc2)nnc1NCCN1CCOCC1` came in with an IC50 on Acetylcholinesterase [1] of 740 µM. This IC50 lies about 13-fold higher than the previous one.
On the same count and under the same terms, under `c1ccc(-c2cc(-c3ccccc3)c(NCCN3CCOCC3)nn2)cc1` stands 260 µM; under `Nc1cc(-c2ccccc2)nnc1NCCN1CCOCC1`, 270 µM.
`c1ccc(CN2CCC(CNc3ccc(-c4ccccc4)nn3)CC2)cc1`: inhibition against Acetylcholinesterase [2] was half-maximal at 5.6 µM (IC50).
Regarding `c1ccc(-c2ccc(NCCN3CCCCC3)nn2)cc1`, the IC50 at Acetylcholinesterase [1] is 13 µM; on Acetylcholinesterase [2] it was 71 µM.
On to `Cc1cc(-c2ccccc2)nnc1NCCN1CCCCC1`, for which half-maximal inhibition at Acetylcholinesterase [1] (IC50) required 5.4 µM.
The compound `c1ccc(-c2cnc(NCCN3CCCCC3)nc2)cc1` showed a half-maximal inhibitory concentration (IC50) on Acetylcholinesterase [1] above 100 µM.
On the same count and under the same terms, under `OCc1cc(-c2ccccc2)nnc1NCCN1CCOCC1` stands 440 µM; under `Cc1cc(-c2ccc3c(c2)OCO3)nnc1NCCN1CCCCC1`, 1 µM.
`c1ccc(-c2ccc(NCCN3CCc4ccccc4C3)nn2)cc1`: the IC50 on Acetylcholinesterase [2] came to 83 µM. That is a double-digit micromolar value.

The values are drawn from ChEMBL document CHEMBL1132590, “Aminopyridazines as acetylcholinesterase inhibitors” (J Med Chem, 1999).
